The text below walks through data of patent publication US7138399B2, “Alkoxypyridine-derivatives” (Altana Pharma AG, priority 2002, dated 2006).

For data set [1], the target named is human inducible NO-synthase (Homo sapiens, UniProt P35228). The data set can be described thus: Measurement of inducible NO-synthase activity ([3H]arginine conversion). Type of data set: biochemical. To be noted: crude cytosolic fraction containing human inducible NO-synthase, arginine 0.1 μM, 45 to 60 min at 37° C.; for IC50: read-out: Inhibition of iNOS activity [measured as −logIC50 (mol/l)] (converted). The method, then: Measurement of Inducible NO-Synthase Activity
The assay is performed in 96-well microtiter F-plates (Greiner, Frickenhausen, FRG) in a total volume of 100 μl in the presence of 100 nM calmodulin, 226 μM CaCl2, 477 μM MgCl2, 5 μM flavin-adenine-dinucleotide (FAD), 5 μM flavin mononucleotide (FMN), 0.1 mM NADPH, 7 mM glutathione, 10 μM BH4 and 100 mM HEPES pH 7.2. Arginine concentrations are 0.1 μM for enzyme inhibition experiments. 150000 dpm of [^3H]arginine are added to the assay mixture. Enzyme reaction is started by the addition of 4 μg of a crude cytosolic fraction containing human inducible NO-synthase and the reaction mixture is incubated for 45 to 60 min at 37° C. Enzyme reaction is stopped by adding 10 μl of 2M MES-buffer pH 5.0. 50 μl of the incubation mixture are transferred into a MADP N65 filtration microtiter plate (Millipore, Eschborn, FRG) containing already 50 μl of AG-50W-X8 cation exchange resin (Biorad, München, FRG). The resin in the Na loaded form is pre-equilibrated in water and 70 μl (corresponding to 50 μl dry beads) are pipetted under heavy stirring with a 8 channel pipette into the filtration plate. After pipetting 50 μl of the enzyme reaction mixture onto the filtration plates, the plates are placed on a filtration manifold (Porvair, Shepperton, UK) and the flow through is collected in Pico scintillation plates (Packard, Meriden, Conn.). […] The total flow through of 125 μl is mixed with 175 μl of Microscint-40 scintillation cocktail (Packard) and the scintillation plate is sealed with TopSeal P-foil (Packard). Scintillation plates are counted in a szintillation counter.
For the measurement of inducible NO-synthase-inhibiting potencies of compounds increasing concentrations of inhibitors were included into the incubation mixture. IC50-values were calculated from the percent inhibition at given concentrations by nonlinear least square fitting.

With `COc1ccnc(CCc2nc3cc(-c4ccccc4)cnc3[nH]2)c1` [compound 10, 2-[2-(4-Methoxypyridin-2-yl)ethyl]-6-phenyl-3H-imidazo[4,5-b]pyridine], the IC50 in data set [1] was 38.9 nM.

As usually defined, the melting point is the temperature of the solid-liquid transition. `COc1ccnc(CCc2nc3cc(-c4ccc(NC(C)=O)cc4)cnc3[nH]2)c1` [compound 36, N-(4-{2-[2-(4-Methoxypyridin-2-yl)ethyl]-3H-imidazo[4,5-b]pyridin-6-yl}phenyl)-acetamide] showed a melting point of 220 to 221 °C. Also, in data set [1], the IC50 was 67.6 nM.

Turning to `COc1ccnc(CCc2nc3cc(-c4ccc(N(C)C)cc4)cnc3[nH]2)c1` [compound 29, 2-[2-(4-Methoxypyridin-2-yl)ethyl]-6-(4-N,N-dimethylaminophenyl)-3H-imidazo[4,5-b]pyridine], the melting point was 176 to 178 °C. The IC50 in data set [1] is 38 nM.

For `COc1ccnc(CCc2nc3cc(-c4ccc(N)cc4)cnc3[nH]2)c1` [compound 27, 2-[2-(4-Methoxypyridin-2-yl)ethyl]-6-(4-aminophenyl)-3H-imidazo-[4,5-b]pyridine], the melting point was 117 to 119 °C. Further, the IC50 in data set [1] is 61.7 nM.

For the compound `COc1ccnc(CCc2nc3cc(-c4ccc(C)cc4)cnc3[nH]2)c1` [compound 25, 2-[2-(4-Methoxypyridin-2-yl)ethyl]-6-p-tolyl-3H-imidazo[4,5-b]pyridine], the IC50 in data set [1] is 34.7 nM.

As to `COc1ccnc(CCc2nc3cc(-c4ccc(NS(=O)(=O)c5ccccc5)cc4)cnc3[nH]2)c1` [compound 37, N-(4-{2-[2-(4-Methoxypyridin-2-yl)ethyl]-3H-imidazo[4,5-b]pyridin-6-yl}phenyl)-benzenesulfonamide], the melting point lay in the range of 251 to 253 °C. For the same compound, in data set [1], the IC50 was 63.1 nM.

`COc1ccnc(CCc2nc3cc(-c4ccc(OCc5ccccc5)cc4)cnc3[nH]2)c1` [compound 32, 2-[2-(4-Methoxypyridin-2-yl)ethyl]-6-(4-benzyloxyphenyl)-3H-imidazo[4,5-b]pyridine] registered a melting point of 161 to 162 °C. Moreover, in data set [1], the IC50 is 45.7 nM.

On to `COc1ccnc(CCc2nc3cc(-c4ccc(OCc5ccccc5)c(F)c4)cnc3[nH]2)c1` [compound 33, 2-[2-(4-Methoxypyridin-2-yl)ethyl]-(4-benzyloxy-3-fluorophenyl)-3H-imidazo[4,5-b]pyridine], for which the “Inhibition of iNOS activity [measured as −logIC50 (mol/l)]” value in data set [1] came out at 7.29.

In the case of `COc1ccnc(CCc2nc3cc(C)cnc3[nH]2)c1` [compound 11, 2-[2-(4-Methoxypyridin-2-yl)ethyl]-6-methyl-3H-imidazo[4,5-b]pyridine], in data set [1], the IC50 was 69.2 nM.

`COc1ccnc(CCc2nc3cc(-c4ccc(O)cc4)cnc3[nH]2)c1` [compound 28, 2-[2-(4-Methoxypyridin-2-yl)ethyl]-6-(4-hydroxyphenyl)-3H-imidazo-[4,5-b]pyridine] came in with a melting point of 206 to 208 °C. The IC50 in data set [1] was 44.7 nM.

On to `COc1ccnc(CCc2nc3cc(-c4ccc(Cl)c(Cl)c4)cnc3[nH]2)c1` [compound 15, 2-[2-(4-Methoxypyridin-2-yl)ethyl]-6-(3,4-dichlorphenyl)-3H-imidazo[4,5-b]pyridine], for which, in data set [1], the “Inhibition of iNOS activity [measured as −logIC50 (mol/l)]” value is reported as 7.33.

The compound `COc1ccnc(CCc2nc3cc(-c4ccc(OC)c(OC)c4)cnc3[nH]2)c1` [compound 31, 2-[2-(4-Methoxypyridin-2-yl)ethyl]-6-(3,4-dimethoxyphenyl)-3H-imidazo[4,5-b]pyridine] yielded a melting point of 185 to 186 °C. Moreover, the IC50 in data set [1] is 75.9 nM.

`COc1ccnc(CCc2nc3cc(C(F)(F)F)cnc3[nH]2)c1` [compound 9, 2-[2-(4-Methoxypyridin-2-yl)ethyl]-6-trifluoromethyl-3H-imidazo[4,5-b]pyridine]: the IC50 in data set [1] is 89.1 nM.

On to `COc1ccnc(CCc2nc3cc(-c4ccc(C#N)cc4)cnc3[nH]2)c1` [compound 34, 2-[2-(4-Methoxypyridin-2-yl)ethyl]-6-(4-cyanophenyl)-3H-imidazo[4,5-b]pyridine], for which the melting point lay in the range of 241 to 242 °C. Also, the IC50 in data set [1] is 33.9 nM.

With `COc1ccnc(CCc2nc3cc(-c4ccc(C(F)(F)F)cc4)cnc3[nH]2)c1` [compound 30, 2-[2-(4-Methoxypyridin-2-yl)ethyl]-6-(4-trifluormethylphenyl)-3H-imidazo[4,5-b]pyridine], the “Inhibition of iNOS activity [measured as −logIC50 (mol/l)]” value in data set [1] was 7.55.

For `COc1ccnc(CCc2nc3cc(CCc4ccccc4)cnc3[nH]2)c1` [compound 14, 2-[2-(4-Methoxypyridin-2-yl)ethyl]-6-(2-phenylethyl)-3H-imidazo[4,5-b]pyridine], in data set [1], the IC50 was 45.7 nM.

Regarding `COc1ccnc(CCc2nc3cc(-c4ccc(Br)cc4)cnc3[nH]2)c1` [compound 16, 2-[2-(4-Methoxypyridin-2-yl)ethyl]-6-(4-bromphenyl)-3H-imidazo[4,5-b]pyridine], the “Inhibition of iNOS activity [measured as −logIC50 (mol/l)]” value in data set [1] was found to be 7.36.

For the compound `COc1ccnc(CCc2nc3cc(-c4cccnc4)cnc3[nH]2)c1` [compound 26, 2-[2-(4-Methoxypyridin-2-yl)ethyl]-6-(pyridin-3-yl)-3H-imidazo-[4,5-b]pyridine], in data set [1], the IC50 was 89.1 nM.

Take `COc1ccnc(CCc2nc3cc(I)cnc3[nH]2)c1` [compound 7, 2-[2-(4-Methoxypyridin-2-yl)ethyl]-6-iodo-3H-imidazo[4,5-b]pyridine]: the IC50 in data set [1] was 32.4 nM.
